Experimental data: patent publication US8598357B2, “Benzodioxole piperidine compounds” (Hoffmann-La Roche Inc., priority 2011, dated 2013)
pKi: −log10 of the molar value. Where two headings read alike, the source gives them in different places.

Experiments:
D3 receptor = D3 receptor (Homo sapiens (Human), UniProt P35462); experiment: Radioligand binding assay ([3H]-spiperone) on membranes of HEK293 EBNA cells expressing human D3 receptor; conditions: read-out: D3 Ki; human receptor in HEK293 EBNA cells; 0.5 nM [3H]-spiperone
D3 receptor, sequence (P35462 whole entry): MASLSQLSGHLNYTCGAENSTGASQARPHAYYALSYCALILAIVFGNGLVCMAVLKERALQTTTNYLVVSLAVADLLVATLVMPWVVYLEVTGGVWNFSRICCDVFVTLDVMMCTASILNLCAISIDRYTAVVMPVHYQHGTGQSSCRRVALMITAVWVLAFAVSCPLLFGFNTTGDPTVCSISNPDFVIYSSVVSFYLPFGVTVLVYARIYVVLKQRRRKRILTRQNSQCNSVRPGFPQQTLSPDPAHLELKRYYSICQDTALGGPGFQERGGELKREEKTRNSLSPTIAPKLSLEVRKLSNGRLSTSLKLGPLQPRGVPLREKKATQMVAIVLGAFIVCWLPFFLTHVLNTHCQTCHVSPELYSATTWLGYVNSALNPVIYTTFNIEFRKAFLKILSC

5-HT2A receptor = 5-HT2A receptor (Homo sapiens (Human), UniProt P28223); experiment: Radioligand binding assay ([3H]-ketanserin) on membranes of HEK293 EBNA cells expressing human 5-HT2A receptor; conditions: read-out: 5HT2A Ki
D2 receptor = D2 receptor (Homo sapiens (Human), UniProt P14416); experiment: Radioligand binding assay ([3H]-spiperone) on membranes of HEK293 EBNA cells expressing human D2 receptor; conditions: human receptor in HEK293 EBNA cells; 0.7 nM [3H]-spiperone
D2 receptor, sequence (P14416 whole entry): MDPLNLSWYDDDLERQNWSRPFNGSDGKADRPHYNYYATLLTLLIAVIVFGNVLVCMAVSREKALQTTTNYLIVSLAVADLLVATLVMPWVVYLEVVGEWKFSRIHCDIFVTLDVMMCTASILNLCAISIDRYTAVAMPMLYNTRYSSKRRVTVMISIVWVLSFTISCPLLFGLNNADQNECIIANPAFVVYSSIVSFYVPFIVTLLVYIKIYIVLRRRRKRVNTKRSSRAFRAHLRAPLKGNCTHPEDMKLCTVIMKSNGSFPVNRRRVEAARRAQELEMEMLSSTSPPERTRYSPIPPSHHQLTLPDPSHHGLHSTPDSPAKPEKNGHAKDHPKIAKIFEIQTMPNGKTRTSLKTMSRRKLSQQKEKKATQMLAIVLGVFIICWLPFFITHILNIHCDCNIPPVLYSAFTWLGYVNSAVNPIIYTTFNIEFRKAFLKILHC
Procedure: HEK293 EBNA cells were transiently transfected with expression plasmids encoding for the human D2 or D3 or for the human 5-HT2A receptor, respectively. The cells were harvested 48 h post-transfection, washed three times with cold PBS and stored at −80° C. prior to use. The pellet was suspended in cold 50 mM Tris-HCl buffer containing 10 mM EDTA (pH 7.4) and was homogenized with a Polytron (Kinematica AG, Basel, Switzerland) for 20-30 sec at 12.000 rpm. After centrifugation at 48.000×g for 30 min at 4° C., the pellet was resuspended in cold 10 mM Tris-HCl buffer containing 0.1 mM EDTA (pH 7.4), homogenized, and centrifuged as above. This pellet was further resuspended in a smaller volume of ice cold 10 mM Tris-HCl buffer containing 0.1 mM EDTA (pH 7.4) and homogenized with a Polytron for 20-30 sec at 12.000 rpm. The protein content of this homogenate was determined with the Bio-Rad (Bradford) Protein Assay (Biorad Laboratories GmbH, München, Germany) according to the instructions of the manufacturer using gamma globulin as the standard. This homogenate was stored at −80° C. in aliquots and thawed immediately prior to use.
Aliquots of membrane preparations were thawed at RT, resuspended in assay buffer (D2, D3: 50 mM Tris-HCl, 120 mM NaCl, 5 mM MgCl2, 1 mM EDTA, 5 mM KCl, 1.5 mM CaCl2, pH=7.4; 5-HT2A: 50 mM Tris-HCl, 10 mM MgCl2, 1 mM EGTA, pH=7.4), homogenized with a Polytron for 20-30 sec at 12.000 rpm and adjusted to a final concentration of approximately 7.5 μg protein/well (D2, D3) and 15 μg protein/well (5-HT2A), respectively.
The nonspecific binding was determined with equally composed reaction mixtures in the presence of 10 μM unlabelled spiperone. Per well 45 μl of Microscint 40 (Perkin Elmer, Schwerzenbach, Switzerland) was added, plates for sealed, shaken for 20 min and counted for 3 min on a Topcount Microplate Scintillation Counter (Can berra Packard SA, Ziirich, Switzerland) with quenching correction.
The CPM value for each duplicate of a concentration of competing compound was averaged (y1), then the % specific binding was calculated according to the equation (((y1−non-specific)/(total binding−non-specific))×100). Graphs were plotted with the % specific binding using XLfit, a curve fitting program that iteratively plots the data using Levenberg-Marquardt algorithm. The single site competition analysis equation used was y=A+((B−A)/(1+((x/C)D))), where y is the % specific binding, A is the minimum y, B is the maximum y, C is the IC50, x is the log 10 of the concentration of the competing compound and D is the slope of the curve (the Hill Coefficient). […] The affinity constant (K) was calculated using the Cheng-Prusoff equation Ki=(IC50/1+([L]/Kd), where [L] is the concentration of radioligand and Kd is the dissociation constant of the radioligand at the receptor as determined by the saturation isotherm.

[1] = human receptor in HEK293 EBNA cells, 1.1 nM [3H]-ketanserin

Row | Compound | pKi (D3 receptor) | pKi (5-HT2A receptor; [1]) | pKi (D2 receptor) | pKi (5-HT2A receptor)
1 | CN1CCN(CC(=O)N[C@H]2CC[C@H](CCN3CCC(c4cccc5c4OCO5)CC3)CC2)CC1 [Example 68, Trans-N-{4-[2-(4-Benzo[1,3]dioxol-4-yl-piperidin-1-yl)-ethyl]-cyclohexyl}-2-(4-methylpiperazin-1-yl)-acetamide] | 7.70 | 7.51 | 6.98 | –
2 | N#Cc1ccc(C(=O)N[C@H]2CC[C@H](CCN3CCC(c4cccc5c4OCO5)CC3)CC2)cc1 [Example 14, Trans-N-{4-[2-(4-Benzo[1,3]dioxol-4-yl-piperidin-1-yl)-ethyl]-cyclohexyl}-4-cyano-benzamide] | 8.11 | 8.04 | 6.82 | –
3 | O=C(N[C@H]1CC[C@H](CCN2CCC(c3cccc4c3OCO4)CC2)CC1)C1CC(Cl)C1 (stereo partly drawn) [Example 28, 3-Chloro-cyclobutanecarboxylic acid trans-{4-[2-(4-benzo[1,3]dioxol-4-yl-piperidin-1-yl)-ethyl]-cyclohexyl}-amide] | 8.20 | – | 6.52 | 7.73
4 | COCC(=O)N[C@H]1CC[C@H](CCN2CCC(c3cccc4c3OCO4)CC2)CC1 [Example 13, Trans-N-{4-[2-(4-Benzo[1,3]dioxol-4-yl-piperidin-1-yl)-ethyl]-cyclohexyl}-2-methoxy-acetamide] | 7.75 | – | 6.29 | 7.84
5 | O=C(CC1COC1)N[C@H]1CC[C@H](CCN2CCC(c3cccc4c3OCO4)CC2)CC1 [Example 29, Trans-N-{4-[2-(4-Benzo[1,3]dioxol-4-yl-piperidin-1-yl)-ethyl]cyclohexyl}-2-oxetan-3-yl-acetamide] | 8.28 | 7.66 | 6.59 | –
6 | O=C(N[C@H]1CC[C@H](CCN2CCC(c3cccc4c3OCO4)CC2)CC1)C1CCS(=O)(=O)C1 (stereo partly drawn) [Example 52, 1,1-Dioxo-tetrahydro-thiophene-3-carboxylic acid-trans-{4-[2-(4-benzo[1,3]dioxol-4-yl-piperidin-1-yl)-ethyl]-cyclohexyl}-amide] | 7.79 | – | 6.89 | 8.34
7 | Cc1cc(CC(=O)N[C@H]2CC[C@H](CCN3CCC(c4cccc5c4OCO5)CC3)CC2)on1 [Example 19, Trans-N-{4-[2-(4-Benzo[1,3]dioxol-4-yl-piperidin-1-yl)-ethyl]-cyclohexyl}-2-(3-methyl-isoxazol-5-yl)-acetamide] | 8.92 | 7.70 | 6.29 | –
8 | CC(C)CC(=O)N[C@H]1CC[C@H](CCN2CCC(c3cccc4c3OCO4)CC2)CC1 [Example 24, Trans-N-{4-[2-(4-Benzo[1,3]dioxol-4-yl-piperidin-1-yl)-ethyl]-cyclohexyl}-3-methyl-butyramide] | 8.30 | 7.54 | 6.62 | –
9 | O=C(C[C@H]1CCCO1)N[C@H]1CC[C@H](CCN2CCC(c3cccc4c3OCO4)CC2)CC1 [Example 16, Trans-N-{4-[2-(4-Benzo[1,3]dioxol-4-yl-piperidin-1-yl)-ethyl]-cyclohexyl}-2-(R)-tetrahydro-furan-2-yl-acetamide] | 7.97 | – | 6.64 | 7.55
10 | O=C(N[C@H]1CC[C@H](CCN2CCC(c3cccc4c3OCO4)CC2)CC1)c1ccc(Cl)cc1 [Example 36, Trans-N-{4-[2-(4-Benzo[1,3]dioxol-4-yl-piperidin-1-yl)-ethyl]-cyclohexyl}-4-chloro-benzamide] | 8.20 | 7.66 | 6.83 | –
11 | O=S(=O)(N[C@H]1CC[C@H](CCN2CCC(c3cccc4c3OCO4)CC2)CC1)c1ccc(F)cc1 [Example 71, N-trans-{4-[2-(4-Benzo[1,3]dioxol-4-yl-piperidin-1-yl)-ethyl]-cyclohexyl}-4-fluoro-benzenesulfonamide] | 8.58 | – | 6.98 | 7.18
12 | O=C(C[C@@H]1CCCOC1)N[C@H]1CC[C@H](CCN2CCC(c3cccc4c3OCO4)CC2)CC1 [Example 42, Trans-N-{4-[2-(4-Benzo[1,3]dioxol-4-yl-piperidin-1-yl)-ethyl]-cyclohexyl}-2-(S)-tetrahydro-pyran-3-yl-acetamide] | 7.93 | 7.70 | 6.49 | –
